In PMC12469503, “Exploring the Antimicrobial and Antiviral Properties of Cryptic Peptides from Human Fibrinogen” (International Journal of Molecular Sciences, 2025):
Read-outs that look alike come from different tables or passages of the source. Ends that are not written are not given here.

Key:
[1] = test system: Pseudomonas aeruginosa PAO1
[2] = test system: Staphylococcus aureus ATCC 6538P; details: for MBC/MIC: Table 2, Staphylococcus aureus ATCC 6538P; for MBC: ATCC 6538
[3] = test system: Pseudomonas aeruginosa PAO1; details: for MIC: Table 2, Pseudomonas aeruginosa PAO1
[4] = test system: Salmonella typhimurium ATCC 14028; assay: MIC, broth microdilution; type: cell-based; details: Table 1; for MIC S. typ.: broth microdilution, Nutrient Broth 0.5×, overnight 37 °C, minimum of three independent experiments
Description: MIC values were determined on Gram-positive and Gram-negative bacteria by the broth microdilution method for antimicrobial peptides previously described [33, 89] with minor modifications.
Bacterial strains were grown in Luria-Bertani (LB) medium overnight at 37 °C and then diluted in Nutrient Broth at a final concentration of ~5 × 10^5 CFU/mL per well. Twofold serial dilutions of peptides were carried out in the test wells to obtain concentrations ranging from 50 μM to 0.05 μM. Plates were incubated overnight at 37 °C.
MIC value was defined as the lowest concentration at which growth was inhibited. Three independent experiments were performed for each MIC value.

[5] = test system: Escherichia coli ATCC 25922
[6] = test system: Klebsiella pneumonia ATCC 700603; details: for MIC K. pne.: ATCC 700603
[7] = test system: Acinetobacter baumanii ATCC 17878
[8] = test system: Salmonella enteriditis 706 RIVM
[9] = test system: Pseudomonas aeruginosa PA14
[10] = test system: Pseudomonas aeruginosa RP73 (clinical isolate)
[11] = test system: Staphylococcus aureus ATCC 6538P; details: ATCC 6538
[12] = test system: Enterococcus faecalis ATCC 29212
[13] = type: physicochemical
Description: The six peptides were produced in the recombinant form by using a previously described strategy that exploit the frog protein onconase (ONC) as a carrier to drive the peptide to inclusion bodies. The fusion proteins were expressed in Escherichia coli strain BL21DE3, using the pET22b(+) vector and named: ONC-DCless-H6-(P)FIBα-GVV27, ONC-DCless-H6-(P)FIBα-SFR22, ONC-DCless-H6-(P)FIBβ-GVV28, ONC-DCless-H6-(P)FIBβ-NWK23, ONC-DCless-H6-(P)FIBγ-GII30, ONC-DCless-H6-(P)FIBγ-TWK25 (nucleotide and amino acid sequences are reported in Supplementary Figure S1). […] Peptides were released by hydrolysis of an acidic labile “Asp-Pro” sequence leading to recombinant peptides endowed with an additional Pro residue at the N-terminus. Thus, the recombinant forms of these peptides are herein named (P)FIBα-GVV27, (P)FIBα-SFR22, (P)FIBβ-GVV28, (P)FIBβ-NWK23, (P)FIBγ-GII30, (P)FIBγ-TWK25. Hydrolysis efficiencies of 95% were estimated for all the recombinant proteins (Supplementary Figure S3). To purify the recombinant peptides from the hydrolysis mixtures, the carrier and the uncleaved fusion protein were selectively precipitated by increasing the pH to 7 exploiting the fact that ONC is insoluble at pH higher than 5, whereas most AMPs are soluble also at neutral pH. […] Therefore, purification of (P)FIBα-SFR22, (P)FIBα-GVV27, (P)FIBβ-NWK23 and (P)FIBγ-TWK25 was first performed by selective precipitation, to remove the carrier and the uncleaved fusion protein, followed by Reverse Phase High-Performance Liquid Chromatography (RP-HPLC) on a C18 column, whereas purification of (P)FIBβ-GVV28 and (P)FIBγ-GII30 was performed directly by RP-HPLC omitting the selective precipitation step. Final yields of all recombinant peptides ranged from approximately 6 to 12 mg per liter of LB culture. Peptide purity, as determined by RP-HPLC, typically varied between 95% and 99% (Supplementary Figure S4).
Peptides (P)FIBα-GVV27, (P)FIBα-SFR22, (P)FIBβ-NWK23 and (P)FIBγ-TWK25 were separated from the carrier and the uncleaved fusion proteins as previously described. The hydrolysis mixture was neutralized to pH 7–7.2 by adding 1 M NH3 and incubated for 1 h at 25 °C under nitrogen atmosphere in a water bath. […] Supernatant and insoluble fraction were analyzed by SDS-PAGE. Concentration of the peptide into the soluble fraction was determined by spectrophotometric analyses using extinction coefficients (Supplementary Table S1) calculated by the ProtParam tool. After the selective precipitation step, purification of the peptide was performed by RP-HPLC. The linear gradients used are listed in Supplementary Table S2. Purification of (P)FIBβ-GVV28 and (P)FIBγ-GII30 was performed directly by RP-HPLC, omitting the selective precipitation step. Purified peptides were lyophilized and dissolved in deionized water. Samples were stored at −80 °C under nitrogen atmosphere. Purity of peptides was evaluated by RP-HPLC on Europa Protein 300 C18 column (5 μm, 25 × 1) using the linear gradients listed in Supplementary Table S2. The identity of the peptides was confirmed by mass spectrometry.

[14] = test system: HCoV-229E; details: Vero cells; for antiviral activity against HCoV-229E: co-treatment assay, from 50 μM peptide
[15] = test system: P. aeruginosa PAO1 biofilm; assay: Antibiofilm attachment assay, confocal microscopy; details: peptide 20 µM added with bacteria, stained after 4 h, Live/Dead BacLight, three independent experiments, t-test vs control
[16] = test system: P. aeruginosa PAO1 biofilm; assay: Antibiofilm detachment assay, confocal microscopy; details: peptide 20 µM on 24 h pre-formed biofilm, further 24 h, Live/Dead BacLight, three independent experiments
[17] = Table 2, Pseudomonas aeruginosa PAO1
[18] = Table 1, broth microdilution, Nutrient Broth 0.5×, overnight 37 °C, minimum of three independent experiments
[19] = Table 1, broth microdilution, Nutrient Broth 0.5×, ~5 × 10^5 CFU/mL, overnight 37 °C, minimum of three independent experiments
[20] = Table 1, control antibiotic, twofold dilutions from 64 µg/mL

Row | Compound | MBC/MIC [1, 17] | MBC/MIC [2] | MIC S. typ. [4] [µM] | MIC E. coli ([5]; ATCC 25922) [µM] | MIC K. pne. [6] [µM] | MIC PAO1 [3] [µM] | MIC PA14 ([9]; PA14) [µM] | MIC RP73 ([10]; RP73 (clinical isolate)) [µM] | MIC S. aur. [11] [µM] | MIC E. fae. ([12]; ATCC 29212) [µM] | MIC A. bau. [7, 18] [µM] | MIC S. ent. [8] [µM] | MIC PA14 [9, 18] [µM] | MIC E. fae. [12, 18] [µM] | further results
1 | NC[C@H]1O[C@H](O[C@H]2[C@H](O)[C@@H](O[C@H]3O[C@H](CO)[C@@H](O)[C@H](N)[C@H]3O)[C@H](N)C[C@@H]2N)[C@H](N)C[C@@H]1O [Tobramycin] | 2 | 2 |  |  |  |  |  |  |  |  |  |  |  |  | 
2 | Colistin [reference compound] | 1 |  |  |  |  |  |  |  |  |  |  |  |  |  | MIC ([3]; antibiotics): 0.5 µg/mL; MBC ([1]; Table 2, Pseudomonas aeruginosa PAO1, antibiotics): 0.5 µg/mL
3 | NWKGSWYSMRKMSMKIRPFFPQQ [FIBβ-NWK23] |  |  | 12.5 | 6.25 | 25 | 6.25 | 3.12 | 6.25 | 3.12 | 6.25 |  |  |  |  | MIC A. bau. ([7]; ATCC 17878): 6.25 µM; MIC S. ent. [8, 18]: 12.5 µM
4 | TWKTRWYSMKKTTMKIIPFNRLTIG [FIBγ-TWK25] |  |  | 3.12 |  | 6.25 | 3.12 |  |  | 1.56 | 6.25 | 3.12 | 6.25 | 3.12 |  | MIC E. coli [5, 19]: 3.12 µM; MIC RP73 [10, 18]: 3.12 µM
5 | GVVWVSFRGADYSLRAVRMKIRPLVTQ [FIBα-GVV27] |  |  | 6.25 | 12.5 | 25 | 6.25 |  | 3.12 | 6.25 |  | 6.25 | 12.5 | 6.25 | 6.25 | 
6 | H-PGVVWVSFRGADYSLRAVRMKIRPLVTQ [(P)FIBα-GVV27] | 1 | 1 | 6.25 | 12.5 | 50 | 6.25 |  | 3.12 | 6.25 |  | 6.25 | 12.5 | 6.25 | 6.25 | solubility / aggregation at pH 7 [13]: soluble at pH 7; MBC ([1]; PAO1): 6.25 µM; MBC [2]: 6.25 µM; antiviral activity against HCoV-229E [14]: strong antiviral activity; fluorescence signal of SYTO 9 (live cells), attachment assay [15]: significantly reduced; SYTO 9 / PI signal, detachment assay [16]: reduction of the SYTO 9 signal coupled with an increase of the PI signal
7 | SFRGADYSLRAVRMKIRPLVTQ [FIBα-SFR22] |  |  | 50 | 25 | >50 | 12.5 | 12.5 | 12.5 | 12.5 | 6.25 |  | 50 |  |  | MIC A. bau. ([7]; ATCC 17878): 25 µM
8 | H-PGIIWATWKTRWYSMKKTTMKIIPFNRLTIG [(P)FIBγ-GII30] | 1 | 1 | 6.25 | 12.5 | 25 | 12.5 |  | 3.12 | 6.25 |  | 6.25 | 12.5 | 6.25 | 6.25 | solubility / aggregation at pH 7 [13]: particularly prone to aggregation and precipitation; MBC ([1]; PAO1): 12.5 µM; MBC [2]: 6.25 µM; antiviral activity against HCoV-229E [14]: strong antiviral activity; IC50 ([14]; read-out: IC50 against HCoV-229E, virus pre-treatment assay (virus incubated with peptide at 37 °C before infection)): 1.3 µM; fluorescence signal of SYTO 9 (live cells), attachment assay [15]: significantly reduced
9 | GVVWMNWKGSWYSMRKMSMKIRPFFPQQ [FIBβ-GVV28] |  |  | 12.5 | 6.25 | 25 | 6.25 | 6.25 | 6.25 | 3.12 | 6.25 |  |  |  |  | MIC A. bau. ([7]; ATCC 17878): 6.25 µM; MIC S. ent. [8, 18]: 12.5 µM
10 | Polymyxin B [reference compound] |  |  |  |  |  |  |  |  |  |  |  |  |  |  | MIC S. typ. (antibiotics) ([4]; control antibiotic, twofold dilutions from 64 µg/mL): 0.12 µg/mL; MIC E. coli (antibiotics) [5, 20]: 0.5 µg/mL; MIC K. pne. (antibiotics) [6, 20]: 0.5 µg/mL; MIC A. bau. (antibiotics) [7, 20]: 0.5 µg/mL; MIC S. ent. (antibiotics) [8, 20]: 0.5 µg/mL; MIC PAO1 (antibiotics) [3, 20]: 0.25 µg/mL; MIC PA14 (antibiotics) [9, 20]: 0.25 µg/mL; MIC RP73 (antibiotics) [10, 20]: 0.12 µg/mL
11 | H-PNWKGSWYSMRKMSMKIRPFFPQQ [(P)FIBβ-NWK23] | 1 | 1 | 6.25 |  | 25 | 6.25 | 3.12 | 3.12 | 3.12 |  | 6.25 | 12.5 |  | 6.25 | solubility / aggregation at pH 7 [13]: soluble at pH 7; MIC E. coli [5, 19]: 6.25 µM; MBC ([1]; PAO1): 6.25 µM; MBC [2]: 3.12 µM; antiviral activity against HCoV-229E [14]: absence of efficacy; fluorescence signal of SYTO 9 (live cells), attachment assay [15]: lower, not significant reduction
12 | CC[C@H](C)[C@H](NC(=O)[C@H](CCCCN)NC(=O)[C@H](CCC(=O)O)NC(=O)[C@H](CCCCN)NC(=O)[C@H](CO)NC(=O)[C@H](CCCCN)NC(=O)[C@H](CCCNC(=N)N)NC(=O)[C@H](Cc1ccccc1)NC(=O)[C@H](Cc1ccccc1)NC(=O)[C@H](CC(=O)O)NC(=O)CNC(=O)[C@H](CC(C)C)NC(=O)[C@@H](N)CC(C)C)C(=O)NCC(=O)N[C@@H](CCCCN)C(=O)N[C@@H](CCC(=O)O)C(=O)N[C@@H](Cc1ccccc1)C(=O)N[C@@H](CCCCN)C(=O)N[C@@H](CCCNC(=N)N)C(=O)N[C@H](C(=O)N[C@H](C(=O)N[C@@H](CCC(N)=O)C(=O)N[C@@H](CCCNC(=N)N)C(=O)N[C@H](C(=O)N[C@@H](CCCCN)C(=O)N[C@@H](CC(=O)O)C(=O)N[C@@H](Cc1ccccc1)C(=O)N[C@@H](CC(C)C)C(=O)N[C@@H](CCCNC(=N)N)C(=O)N[C@@H](CC(N)=O)C(=O)N[C@@H](CC(C)C)C(=O)N[C@H](C(=O)N1CCC[C@H]1C(=O)N[C@@H](CCCNC(=N)N)C(=O)N[C@H](C(=O)N[C@@H](CCC(=O)O)C(=O)N[C@@H](CO)C(=O)O)[C@@H](C)O)C(C)C)[C@@H](C)CC)C(C)C)[C@@H](C)CC [LL37, reference compound] |  |  |  |  |  |  |  |  |  |  |  |  |  |  | MIC ([3]; minimum of three independent experiments): 1.56 µM; MBC ([1]; Table 2, Pseudomonas aeruginosa PAO1, […], subculture on LB agar): 1.56 µM
